Assay results: PMC10720658 (Frontiers in parasitology, 2023)

Target: T1, AEK1 (Trypanosoma brucei, UniProt Q582V7)
T1 construct: gene Tb03.48O8.470
Experiment: TR-FRET displacement of probe SCP-2
Assay type: binding
Conditions: read-out: % control^a

T1 sequence (Q582V7 entry or part of it): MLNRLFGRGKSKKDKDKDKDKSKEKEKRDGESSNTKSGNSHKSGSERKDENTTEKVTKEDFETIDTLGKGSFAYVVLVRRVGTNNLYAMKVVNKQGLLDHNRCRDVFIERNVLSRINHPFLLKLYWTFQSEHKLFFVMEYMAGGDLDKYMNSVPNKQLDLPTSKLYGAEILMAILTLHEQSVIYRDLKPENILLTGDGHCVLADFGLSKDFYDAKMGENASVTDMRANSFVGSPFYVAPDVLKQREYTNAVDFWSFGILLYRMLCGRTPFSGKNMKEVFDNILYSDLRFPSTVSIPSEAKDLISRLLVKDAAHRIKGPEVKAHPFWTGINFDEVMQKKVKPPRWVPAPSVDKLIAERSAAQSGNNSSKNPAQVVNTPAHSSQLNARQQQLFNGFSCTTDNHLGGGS

## Cc1nc(Nc2[nH]nc3c2CN(C(=O)N[C@H](CN(C)C)c2ccccc2)C3(C)C)c2sccc2n1 [PF-3758309]
  probe binding remaining (% of control) at 1 µM: 38.2%

## COc1cc2c(Oc3ccc4[nH]c(C)cc4c3F)ncnc2cc1OCCCN1CCCC1 [Cediranib (AZD2171)]
  probe binding remaining (% of control) at 1 µM: 36.6%

## CCS(=O)(=O)c1cccc(-c2cc(C(=O)NC3CCN(C)CC3)c(C)c3[nH]c4ncc(C)cc4c23)c1 [TAK-901]
  probe binding remaining (% of control) at 1 µM: 20.1%

## Cc1c[nH]c2nc(Nc3ccc(N4CCN(C)CC4)c(F)c3)nc(-c3cccc(CC#N)c3)c12 [SGI-7079]
  probe binding remaining (% of control) at 1 µM: 43.7%

## Cn1cc(-c2[nH]c3cc(NC(=O)[C@H](N)C4CCCCC4)cc4c3c2C=NNC4=O)cn1 [PF-477736]
  probe binding remaining (% of control) at 1 µM: 23.1%
